Measurements as given in PMC6952399, “Structures of lipoprotein signal peptidase II from Staphylococcus aureus complexed with antibiotics globomycin and myxovirescin” (Nature Communications, 2020).
Several values for one entry are separate records, joined by “and”; a condition that tells them apart may be missing. Identical values can stand only once.

Target: T1, LspPae (lipoprotein signal peptidase II from Pseudomonas aeruginosa) (Pseudomonas aeruginosa, UniProt Q9HVM5)
T1 construct: made in house
T1 sequence (Q9HVM5 1-169): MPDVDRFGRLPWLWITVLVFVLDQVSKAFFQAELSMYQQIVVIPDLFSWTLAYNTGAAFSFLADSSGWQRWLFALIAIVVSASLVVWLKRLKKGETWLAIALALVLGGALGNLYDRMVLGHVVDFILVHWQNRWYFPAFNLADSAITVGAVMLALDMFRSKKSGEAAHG
Test: FRET lipopeptide peptidase assay, LspPae
Type: biochemical
Conditions: for Fluorescence (RFU): FRET substrate + LspA + Globomycin; for Rate (RFU/min) / Normalised rate (Vi/V0): replicates 1 and 2; for Ki: estimated Ki’ (apparent inhibition constant)
Procedure: FRET activity assays. A FRET based assay was developed using a labelled lipopeptide substrate (Supplementary Methods, Supplementary Fig. 3b) to directly monitor the protease activity of LspA. The optimised LspMrs assay buffer included 100 mM Tris/HCl pH 7.8, 150 mM NaCl and 0.09%(w/v) DDM. The corresponding optimized buffer for LspPae included 100 mM MES/NaOH pH 5.6, 150 mM NaCl and 0.05%(w/v) LMNG. All assays were performed at 37 °C.
Reaction mixtures were prepared by vortexing (Clifton, cyclone CM-1) for 2 s and incubated at 37 °C, 800 rpm for 10 to 30 min. […] For dose-response assays, the final DMSO concentration in all reactions was 10%(v/v). Reaction mixtures were pipetted into wells of a 96- (Thermo Scientific) or a 384-well plate (4titude®) and incubated for 10 min at 37 °C in a SpectraMax M3 or a SpectraMax M5e plate reader (Molecular devices) prior to starting the assay. Assays were initiated by adding enzyme to a final concentration in the range 10–300 nM. Total reaction mixture volume was 50 μL. Reactions were monitored by fluorescence (Ex/Em, 320 nm/420 nm) for 30 to 60 min at 37 °C. Initial rates were calculated from the fluorescence intensity versus time progress curves (Supplementary Figs. 5 and 6). Occasionally, lag periods in the progress curves were observed (Supplementary Discussion). In such cases, initial rates were calculated after the lag period had passed (typically 1–5 min) and a steady rate had been established. Dose-response plots to determine IC50 values were generated using Prism® 5 software from GraphPad.
It was possible to convert units of fluorescence change into moles of substrate consumed or products formed because pure products of LspA action on Abz-LALAGC*SS-nY-NH2 had been synthesized and were available. These were used to create a standard curve of fluorescence versus moles of the two products in equimolar amounts and to calculate specific activity values. […]
One consequence of LspMrs having a relatively low specific activity is that, in order to get a reliable signal in activity assays, it was necessary to raise enzyme concentration. For kinetic measurements generally, it is desirable to use an enzyme concentration that is much lower than that of the substrate. In this situation, the usual assumption that added and free substrate concentrations are equal is valid. At high enzyme concentrations [E] therefore, and especially in the case of tight ligand binding where the inhibition constant, Ki, is small, a measured IC50 is limited to [E]/2 4–6. In such circumstances, a meaningful IC50 or Ki can only be obtained with considerable effort. With a few exceptions in the current study, this situation prevailed with both LspA orthologs where IC50 values came close to [E]/2 (Table 1 and Supplementary Table 3, Supplementary Fig. 6). […]
Inhibition of LspA from E. coli by globomycin has been described as non-competitive7. The evidence provided in support o f this conclusion included an insensitivity of IC 50 to substrate concentration and the fact that the Vmax but not the K m changed with globomycin concentration. It was of interest to determine if a similar mode of inhibition applied to LspPae and LspMrs. From published work7–9 and from FRET-based kinetics measurements reported here, we know that globomycin binds with high affinity (Supplementary Fig. 6). Tight binding means that a more in-depth analysis must be carried out in order to identify inhibition type. For such analysis, it is important to know active enzyme concentration accurately. Fortunately, it was possible to use the property of tight inhibitor binding to measure the concentration of active enzyme ( Supplementary Fig. 18a). In the case of LspPae, the estimated value and the concentration determined spectroscopically agreed remarkably well. Parenthetically we note that knowing active LspPae concentration accurately enabled a characterization of the myxovirescin sample used in this study. Myxovirescin also binds tightly to LspA (Supplementary Fig. 6). […]

[1] = Suppl. Fig. 18a, [Globomycin] 0.02 M
[2] = Suppl. Fig. 18a, [Globomycin] 0.08 M
[3] = Suppl. Fig. 18a, [Globomycin] 0.1 M
[4] = Suppl. Fig. 18a, [Globomycin] 0.12 M
[5] = Suppl. Fig. 18a, [Globomycin] 0.15 M
[6] = Suppl. Fig. 18a, [Globomycin] 0.25 M

CCCCCC[C@H]1OC(=O)CNC(=O)[C@H]([C@H](C)O)NC(=O)[C@H](CO)NC(=O)[C@H]([C@H](C)CC)NC(=O)[C@H](CC(C)C)N(C)C(=O)[C@@H]1C [globomycin]
inhibitor on-rates (5-fold molar excess of antibiotic added 20 to 30 min after start of reaction): fast
Fluorescence (RFU) (time 26.5 min): 472.821 RFU
Fluorescence (RFU) (time 27 min): 466.895 RFU
Fluorescence (RFU) (time 27.5 min): 470.521 RFU
Fluorescence (RFU) (time 28 min): 460.426 RFU
Fluorescence (RFU) (time 28.5 min): 463.196 RFU
Fluorescence (RFU) (time 29 min): 462.392 RFU
Fluorescence (RFU) (time 29.5 min): 469.501 RFU
Fluorescence (RFU) (time 30 min): 460.374 RFU
Fluorescence (RFU) (time 30.5 min): 459.928 RFU
Fluorescence (RFU) (time 31 min): 456.673 RFU
Fluorescence (RFU) (time 31.5 min): 461.288 RFU
Fluorescence (RFU) (time 32 min): 457.637 RFU
Fluorescence (RFU) (time 32.5 min): 459.756 RFU
Fluorescence (RFU) (time 33 min): 461.040 RFU
Fluorescence (RFU) (time 33.5 min): 455.548 RFU
Fluorescence (RFU) (time 34 min): 459.251 RFU
Fluorescence (RFU) (time 34.5 min): 461.912 RFU
Fluorescence (RFU) (time 35 min): 462.029 RFU
Fluorescence (RFU) (time 35.5 min): 459.871 RFU
Fluorescence (RFU) (time 36 min): 456.705 RFU
Fluorescence (RFU) (time 36.5 min): 457.128 RFU
Fluorescence (RFU) (time 37 min): 457.399 RFU
Fluorescence (RFU) (time 37.5 min): 460.693 RFU
Fluorescence (RFU) (time 38 min): 454.401 RFU
Fluorescence (RFU) (time 38.5 min): 457.430 RFU
Fluorescence (RFU) (time 39 min): 456.060 RFU
Fluorescence (RFU) (time 39.5 min): 454.659 RFU
Fluorescence (RFU) (time 40 min): 457.707 RFU
Fluorescence (RFU) (time 40.5 min): 450.482 RFU
Fluorescence (RFU) (time 41 min): 454.135 RFU
Fluorescence (RFU) (time 41.5 min): 449.262 RFU
Fluorescence (RFU) (time 42 min): 454.556 RFU
Fluorescence (RFU) (time 42.5 min): 450.049 RFU
Fluorescence (RFU) (time 43 min): 449.698 RFU
Fluorescence (RFU) (time 43.5 min): 456.047 RFU
Fluorescence (RFU) (time 44 min): 454.046 RFU
Fluorescence (RFU) (time 44.5 min): 452.003 RFU
Fluorescence (RFU) (time 45 min): 447.269 RFU
Fluorescence (RFU) (time 45.5 min): 454.250 RFU
Fluorescence (RFU) (time 46 min): 454.835 RFU
Fluorescence (RFU) (time 46.5 min): 452.245 RFU
Fluorescence (RFU) (time 47 min): 453.938 RFU
Fluorescence (RFU) (time 47.5 min): 452.432 RFU
Fluorescence (RFU) (time 48 min): 453.748 RFU
Fluorescence (RFU) (time 48.5 min): 446.264 RFU
Fluorescence (RFU) (time 49 min): 454.134 RFU
Fluorescence (RFU) (time 49.5 min): 458.300 RFU
Fluorescence (RFU) (time 50 min): 453.740 RFU
Fluorescence (RFU) (time 50.5 min): 458.019 RFU
Fluorescence (RFU) (time 51 min): 452.119 RFU
IC50 (IC50, 20 nM LspPae, substrate 2.5 µM): 5.32 nM and 7.73 nM
IC50 (IC50, 20 nM LspPae, substrate 5 µM): 6.43 nM and 11.1 nM
IC50 (IC50, 20 nM LspPae, substrate 7.5 µM): 6.63 nM and 10.1 nM
IC50 (IC50, 20 nM LspPae, substrate 10 µM): 7.18 nM and 9.58 nM
IC50 (IC50, 20 nM LspPae, substrate 20 µM): 5.81 nM and 8.79 nM
IC50 (IC50, 20 nM LspPae, substrate 30 µM): 5.73 nM and 9.79 nM
IC50 (IC50, FRET, 0.1 µM enzyme, 30 µM substrate, initial rates): 57 nM
IC50 (IC50, LspPae concentration 10 nM): 5.5 nM and 7.7 nM
IC50 (IC50, LspPae concentration 20 nM): 10.6 nM and 17.6 nM
IC50 (IC50, LspPae concentration 40 nM): 22.6 nM and 26.4 nM
IC50 (IC50, LspPae concentration 60 nM): 27.8 nM and 39 nM
IC50 (IC50, LspPae concentration 80 nM): 37.9 nM and 55.3 nM
IC50 (IC50, LspPae concentration 100 nM): 52.6 nM and 61.3 nM
Rate (RFU/min) (LspPae + Globomycin, log [globomycin] (µM) -0.60): 0.6 RFU/min and 0.7 RFU/min
Rate (RFU/min) (LspPae + Globomycin, log [globomycin] (µM) -0.82): 0.856 RFU/min and 1.1 RFU/min
Rate (RFU/min) (LspPae + Globomycin, log [globomycin] (µM) -0.92): 0.9 RFU/min and 0.95 RFU/min
Rate (RFU/min) (LspPae + Globomycin, log [globomycin] (µM) -1.00): 4.1 RFU/min and 3.2 RFU/min
Rate (RFU/min) (LspPae + Globomycin, log [globomycin] (µM) -1.10): 12.3 RFU/min and 11.9 RFU/min
Rate (RFU/min) (LspPae + Globomycin, log [globomycin] (µM) -1.30): 31.7 RFU/min and 30.1 RFU/min
Rate (RFU/min) (LspPae + Globomycin, log [globomycin] (µM) -1.70): 42.7 RFU/min
Normalised rate (Vi/V0) [1]: 0.8723 and 0.8656
Rate (RFU/min) [1]: 40.92 RFU/min and 41.48 RFU/min
Normalised rate (Vi/V0) (Suppl. Fig. 18a, [Globomycin] 0.05 M): 0.6284 and 0.6375
Normalised rate (Vi/V0) [2]: 0.2526 and 0.2533
Rate (RFU/min) [2]: 11.85 RFU/min and 12.14 RFU/min
Normalised rate (Vi/V0) [3]: 0.07205 and 0.07513
Rate (RFU/min) [3]: 3.38 RFU/min and 3.6 RFU/min
Normalised rate (Vi/V0) [4]: 0.01684 and 0.01523
Rate (RFU/min) [4]: 0.79 RFU/min and 0.73 RFU/min
Normalised rate (Vi/V0) [5]: 0.0162 and 0.00793
Rate (RFU/min) [5]: 0.76 RFU/min and 0.38 RFU/min
Normalised rate (Vi/V0) [6]: 0.02132 and 0.008139
Rate (RFU/min) [6]: 1 RFU/min and 0.39 RFU/min
Rate (RFU/min) (Suppl. Fig. 18a): 29.48 RFU/min and 30.55 RFU/min
IC50 (average IC50, 20 nM LspPae, substrate 2.5 or 5 to 30 µM): ~10 nM
Ki (Morrison analysis, 30 µM substrate, 0.1 µM LspPae): 0.74 ± 0.41 nM
Ki (from dependence of IC50 on enzyme concentration, IC50 = Ki’ + [E]/2): 1.96 ± 3 nM
